The target of the experiment is human KAT II (hKAT II) enzyme (Homo sapiens, UniProt Q8N5Z0). The experiment is described as follows: KAT II Inhibition Spectra Assay. The conditions noted are these: Table 6; hKAT II, decrease in OD370, 37° C., 15-20 h; read-out: KATII IC50. It counts as biochemical. Put shortly:
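hKAT II (15 nM, 3× stock) converts L-kynurenine (3 mM, 3× stock) with α-ketoglutarate and PLP in Tris acetate; 15–20 h at 37 °C. Inhibition of the OD370 decrease read versus DMSO wells across a concentration range gives IC50.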

Counter-ions that a name gives are not always drawn.

Sequence of human KAT II (hKAT II) enzyme (Q8N5Z0 30-425): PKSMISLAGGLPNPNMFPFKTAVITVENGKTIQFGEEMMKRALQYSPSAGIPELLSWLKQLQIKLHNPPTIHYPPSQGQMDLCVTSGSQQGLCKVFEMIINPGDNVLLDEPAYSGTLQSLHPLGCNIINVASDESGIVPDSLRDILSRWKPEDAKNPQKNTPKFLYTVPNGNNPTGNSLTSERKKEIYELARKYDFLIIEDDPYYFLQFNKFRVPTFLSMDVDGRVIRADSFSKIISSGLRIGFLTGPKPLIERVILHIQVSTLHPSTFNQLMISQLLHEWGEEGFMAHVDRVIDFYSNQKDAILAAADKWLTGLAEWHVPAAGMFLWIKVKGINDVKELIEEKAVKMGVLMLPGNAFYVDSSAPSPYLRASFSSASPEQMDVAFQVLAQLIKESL

Turning to `N[C@H]1Cc2cc(-c3ccccc3OC(F)(F)F)ccc2N(O)C1=O` [Example 132, (3S)-3-amino-1-hydroxy-6-[2-(trifluoromethoxy)phenyl]-3,4-dihydroquinolin-2(1H)-one, trifluoroacetate salt], the half-maximal inhibitory concentration (IC50) was 121 nM. Take `N[C@H]1Cc2cc(-c3cc(F)ccc3F)ccc2N(O)C1=O` [Example 133, (3S)-3-amino-6-(2,5-difluorophenyl)-1-hydroxy-3,4-dihydroquinolin-2(1H)-one, trifluoroacetate salt]: the IC50 amounted to 86.6 nM. Next, `COc1ccc(-c2ccc3c(c2)C[C@H](N)C(=O)N3O)cc1C` [Example 134, (3S)-3-amino-1-hydroxy-6-(4-methoxy-3-methylphenyl)-3,4-dihydroquinolin-2(1H)-one, trifluoroacetate salt]: 199 nM. Next, `Cc1ccccc1-c1ccc2c(c1)C[C@H](N)C(=O)N2O` [Example 135, (3S)-3-amino-1-hydroxy-6-(2-methylphenyl)-3,4-dihydroquinolin-2(1H)-one, trifluoroacetate salt]: 116 nM; `N[C@H]1Cc2cc(-c3ccccc3F)ccc2N(O)C1=O` [Example 136, (3S)-3-amino-6-(2-fluorophenyl)-1-hydroxy-3,4-dihydroquinolin-2(1H)-one, trifluoroacetate salt]: 129 nM.

Take `COc1ccc(-c2ccc3c(c2)C[C@H](N)C(=O)N3O)c(C)c1` [Example 137, (3S)-3-amino-1-hydroxy-6-(4-methoxy-2-methylphenyl)-3,4-dihydroquinolin-2(1H)-one, trifluoroacetate salt]: the IC50 was 69 nM. With `N[C@H]1Cc2cc(-c3ccc4c(c3)CCO4)ccc2N(O)C1=O` [Example 138, (3S)-3-amino-6-(2,3-dihydro-1-benzofuran-5-yl)-1-hydroxy-3,4-dihydroquinolin-2(1H)-one, trifluoroacetate salt], the IC50 was 156 nM. As to `N[C@H]1Cc2cc(-c3cccc(F)c3)ccc2N(O)C1=O` [Example 139, (3S)-3-amino-6-(3-fluorophenyl)-1-hydroxy-3,4-dihydroquinolin-2(1H)-one, trifluoroacetate salt], the IC50 amounted to 66.1 nM. In the case of `N[C@H]1Cc2cc(-c3ccc(Cl)cc3)ccc2N(O)C1=O` [Example 140, (3S)-3-amino-6-(4-chlorophenyl)-1-hydroxy-3,4-dihydroquinolin-2(1H)-one, trifluoroacetate salt], the IC50 came out at 252 nM. Turning to `CCOc1ccccc1-c1ccc2c(c1)C[C@H](N)C(=O)N2O` [Example 141, (3S)-3-amino-6-(2-ethoxyphenyl)-1-hydroxy-3,4-dihydroquinolin-2(1H)-one, trifluoroacetate salt], the IC50 turned out to be 283 nM. For the compound `N[C@H]1Cc2cc(-c3ccc(F)cc3)ccc2N(O)C1=O` [Example 142, (3S)-3-amino-6-(4-fluorophenyl)-1-hydroxy-3,4-dihydroquinolin-2(1H)-one, trifluoroacetate salt], the IC50 was 102 nM. For the compound `N[C@H]1Cc2cc(-c3cccc(Cl)c3)ccc2N(O)C1=O` [Example 143, (3S)-3-amino-6-(3-chlorophenyl)-1-hydroxy-3,4-dihydroquinolin-2(1H)-one, trifluoroacetate salt], the concentration for half-maximal inhibition (IC50) is 96 nM.

As to `N[C@H]1Cc2cc(-c3cccc(C(F)(F)F)c3)ccc2N(O)C1=O` [Example 144, (3S)-3-amino-1-hydroxy-6-[3-(trifluoromethyl)phenyl]-3,4-dihydroquinolin-2(1H)-one, trifluoroacetate salt], the half-inhibitory concentration (IC50) is 145 nM.

As for `N[C@H]1Cc2cc(-c3cccc(Cl)c3Cl)ccc2N(O)C1=O` [Example 145, (3S)-3-amino-6-(2,3-dichlorophenyl)-1-hydroxy-3,4-dihydroquinolin-2(1H)-one, trifluoroacetate salt], the IC50 amounted to 179 nM. Consider `Cc1cccc(-c2ccc3c(c2)C[C@H](N)C(=O)N3O)c1` [Example 146, (3S)-3-amino-1-hydroxy-6-(3-methylphenyl)-3,4-dihydroquinolin-2(1H)-one, trifluoroacetate salt], for which the IC50 came out at 78.6 nM. Next, `N[C@H]1Cc2cc(-c3ccc(F)cc3F)ccc2N(O)C1=O` [Example 147, (3S)-3-amino-6-(2,4-difluorophenyl)-1-hydroxy-3,4-dihydroquinolin-2(1H)-one, trifluoroacetate salt]: 75.6 nM; `N[C@H]1Cc2cc(-c3c(F)cccc3F)ccc2N(O)C1=O` [Example 148, (3S)-3-amino-6-(2,6-difluorophenyl)-1-hydroxy-3,4-dihydroquinolin-2(1H)-one, trifluoroacetate salt]: 76.1 nM. As for `CCc1ccccc1-c1ccc2c(c1)C[C@H](N)C(=O)N2O` [Example 149, (3S)-3-amino-6-(2-ethylphenyl)-1-hydroxy-3,4-dihydroquinolin-2(1H)-one, trifluoroacetate salt], the IC50 amounted to 118 nM. Consider `N[C@H]1Cc2cc(-c3ccccc3)ccc2N(O)C1=O` [Example 150, (3S)-3-amino-1-hydroxy-6-phenyl-3,4-dihydroquinolin-2(1H)-one, trifluoroacetate salt], for which the IC50 is 96.7 nM. In the case of `COc1ncccc1-c1ccc2c(c1)C[C@H](N)C(=O)N2O` [Example 151, (3S)-3-amino-1-hydroxy-6-(2-methoxypyridin-3-yl)-3,4-dihydroquinolin-2(1H)-one, trifluoroacetate salt], the 50% inhibitory concentration (IC50) is 63.6 nM.

On to `N[C@H]1Cc2cc(-c3cc(F)ccc3Cl)ccc2N(O)C1=O` [Example 152, (3S)-3-amino-6-(2-chloro-5-fluorophenyl)-1-hydroxy-3,4-dihydroquinolin-2(1H)-one, trifluoroacetate salt], for which the IC50 was determined as 94 nM. With `COc1ccc(-c2ccc3c(c2)C[C@H](N)C(=O)N3O)cc1` [Example 153, (3S)-3-amino-1-hydroxy-6-(4-methoxyphenyl)-3,4-dihydroquinolin-2(1H)-one, trifluoroacetate salt], the IC50 came out at 162 nM. Regarding `N[C@H]1Cc2cc(-c3ccccc3Cl)ccc2N(O)C1=O` [Example 154, (3S)-3-amino-6-(2-chlorophenyl)-1-hydroxy-3,4-dihydroquinolin-2(1H)-one, trifluoroacetate salt], the half-maximal inhibitory concentration (IC50) was 96.5 nM. For the compound `COc1cccc(-c2ccc3c(c2)C[C@H](N)C(=O)N3O)c1` [Example 155, (3S)-3-amino-1-hydroxy-6-(3-methoxyphenyl)-3,4-dihydroquinolin-2(1H)-one, trifluoroacetate salt], the IC50 turned out to be 136 nM. With `N[C@H]1Cc2cc(Oc3ccc(F)c(Cl)c3)ccc2N(O)C1=O` [Example 156, (3S)-3-amino-6-(3-chloro-4-fluorophenoxy)-1-hydroxy-3,4-dihydroquinolin-2(1H)-one, trifluoroacetate salt], the IC50 is 86.7 nM. Consider `N[C@H]1Cc2cc(Oc3cc(F)ccc3F)ccc2N(O)C1=O` [Example 157, (3S)-3-amino-6-(2,5-difluorophenoxy)-1-hydroxy-3,4-dihydroquinolin-2(1H)-one, trifluoroacetate salt], for which the IC50 was 68.5 nM. Take `N[C@H]1Cc2cc(Oc3ccc(Cl)c(C(F)(F)F)c3)ccc2N(O)C1=O` [Example 158, (3S)-3-amino-6-[4-chloro-3-(trifluoromethyl)phenoxy]-1-hydroxy-3,4-dihydroquinolin-2(1H)-one, trifluoroacetate salt]: the IC50 came out at 126 nM.

The record behind these values is US8183238B2, “Bicyclic and tricyclic compounds as KAT II inhibitors” (priority 2009, dated 2012).
